Structures are written as SMILES.

Data set [1] concerns DMT1-deficient Caco-2 cells. Briefly: shDMT1-Caco2 55Fe transport assay. Format: cell-based. The conditions noted are these: 3 μM, 4 h; fold change over DMSO normalized to hinokitiol at 3 μM (FC hino=1).
The next data set in a line: Mouse 6-hour PK study. Conditions: in vivo, mouse 6-hour PK.

With `CC(C)c1cccc(=O)c(O)c1` [hinokitiol, reference compound], the “Caco2 shDMT1 transport FC @ 3 μM, 4 h” value in data set [1] is recorded as 1. In addition, in “Mouse 6-hour PK study” (read-out: AUClast 0-6 hr), the AUC(0-t) was 584 ng·h/mL. Further, in “Mouse 6-hour PK study” (read-out: Cmax), the Cmax came out at 956 ng/mL. Also, the half-life in the data set “Mouse 6-hour PK study” (read-out: t1/2 (converted)) was 1.11 h.

The record behind these values is US20230406803A1, “TROPOLONE DERIVATIVES AND TAUTOMERS THEREOF FOR IRON REGULATION IN ANIMALS” (Kinesid Therapeutics, Inc, priority 2020, published 2023).
